Experimental data: PMC2989642 (The European journal of neuroscience, 2010)
Where “and” joins values, the source holds several entries; their conditions need not be identical. Equal entries are not always repeated. Where two headings read alike, the source gives them in different places.

Columns and labels:
[1] = target: hetero-oligomeric nAChR binding sites in SCG membranes (Mus musculus, UniProt Q8R493+Q8R4G9)
[2] = target: nAChRs in adult (intact) mouse SCG; settings: read-out: KD of [3H]-epibatidine binding, ref Del Signore et al., 2002; cited from earlier work
hα3α5β4 = settings: probed with 300 μM ACh; ref Nelson et al., 2001; cited from earlier work
[3] = target: α3β4α5 receptors (in the β2 KO) (Mus musculus, UniProt Q8R493+Q8R4G9); type: cell-based
[4] = target: α3β2 receptors (in the α5β4 KO) (Mus musculus, UniProt Q8R4G9+Q9ERK7); assay: cell-based; type: cell-based
[5] = target: α3β4 receptors (in the α5β2 KO) (Mus musculus, UniProt Q8R493+Q8R4G9); assay: cell-based
hα3β4 = settings: ref Nelson et al., 2001, cited from earlier work
human α3β4 receptors = settings: ref Chavez-Noriega et al., 1997; cited from earlier work
rα3β4 receptors = settings: ref Wong et al., 1995; cited from earlier work
α7 nAChRs [6] = type: cell-based, mouse
α7 nAChRs [7] = type: cell-based, mouse; remark: listed apart in the source
[8] = tested on: SCG neurons from α5α7β2 KO animals; type: cell-based, mouse
α7 receptors = α7 receptors (Gallus gallus, UniProt P22770); type: cell-based, chick
α7 nAChRs [9] = target: T1, α7 nAChRs (Mus musculus, UniProt P49582); type: cell-based
α7 nAChRs [10] = target: T1, α7 nAChRs; type: cell-based; remark: listed apart in the source

α3β2 receptors (in the α5β4 KO), sequence (Q8R4G9 26-499): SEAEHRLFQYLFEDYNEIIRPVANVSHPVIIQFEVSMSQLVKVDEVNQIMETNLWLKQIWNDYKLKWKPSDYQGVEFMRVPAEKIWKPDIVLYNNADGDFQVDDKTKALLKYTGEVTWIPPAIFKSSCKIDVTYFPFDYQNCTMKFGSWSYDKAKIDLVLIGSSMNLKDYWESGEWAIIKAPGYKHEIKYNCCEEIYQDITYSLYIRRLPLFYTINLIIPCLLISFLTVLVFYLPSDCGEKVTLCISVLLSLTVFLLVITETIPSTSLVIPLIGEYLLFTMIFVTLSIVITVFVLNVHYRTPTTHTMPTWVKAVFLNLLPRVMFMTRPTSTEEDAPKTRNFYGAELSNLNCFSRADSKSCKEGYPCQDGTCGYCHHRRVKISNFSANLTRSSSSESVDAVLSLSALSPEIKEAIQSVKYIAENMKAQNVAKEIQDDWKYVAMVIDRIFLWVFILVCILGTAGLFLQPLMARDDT
α3β2 receptors (in the α5β4 KO), sequence (Q9ERK7 26-501): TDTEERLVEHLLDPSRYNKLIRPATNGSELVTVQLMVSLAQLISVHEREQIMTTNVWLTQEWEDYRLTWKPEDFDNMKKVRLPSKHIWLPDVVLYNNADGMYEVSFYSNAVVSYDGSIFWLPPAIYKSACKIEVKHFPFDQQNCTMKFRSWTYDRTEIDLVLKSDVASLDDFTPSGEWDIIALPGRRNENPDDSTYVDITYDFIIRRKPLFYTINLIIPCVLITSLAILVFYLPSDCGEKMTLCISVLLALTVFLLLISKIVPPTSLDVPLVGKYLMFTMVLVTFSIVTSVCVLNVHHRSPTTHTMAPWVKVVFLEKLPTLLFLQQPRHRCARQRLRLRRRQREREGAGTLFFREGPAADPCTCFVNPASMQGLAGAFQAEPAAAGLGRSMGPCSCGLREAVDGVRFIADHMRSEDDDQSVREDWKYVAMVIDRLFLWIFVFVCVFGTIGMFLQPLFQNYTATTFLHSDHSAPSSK
α3β4 receptors (in the α5β2 KO), sequence (Q8R4G9 26-499): as the sequence (Q8R4G9 26-499) above
α3β4 receptors (in the α5β2 KO), sequence (Q8R493 21-495): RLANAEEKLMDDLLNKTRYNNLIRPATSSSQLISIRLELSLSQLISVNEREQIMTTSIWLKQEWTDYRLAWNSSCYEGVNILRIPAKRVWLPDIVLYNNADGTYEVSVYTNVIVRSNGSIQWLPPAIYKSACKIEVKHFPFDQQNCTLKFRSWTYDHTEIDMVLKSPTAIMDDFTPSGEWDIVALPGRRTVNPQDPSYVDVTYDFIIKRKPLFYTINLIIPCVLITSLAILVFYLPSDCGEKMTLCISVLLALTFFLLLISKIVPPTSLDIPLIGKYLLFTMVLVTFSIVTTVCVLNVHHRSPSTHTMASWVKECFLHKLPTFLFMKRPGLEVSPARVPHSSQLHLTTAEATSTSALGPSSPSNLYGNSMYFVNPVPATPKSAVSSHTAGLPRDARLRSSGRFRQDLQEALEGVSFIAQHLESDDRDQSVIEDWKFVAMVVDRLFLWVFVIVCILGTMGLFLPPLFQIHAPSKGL
α3β4α5 receptors (in the β2 KO), sequence (Q8R4G9 26-499): as the sequence (Q8R4G9 26-499) above
α3β4α5 receptors (in the β2 KO), sequence (Q8R493 21-495): as the sequence (Q8R493 21-495) above
α3β4α5 receptors (in the β2 KO), sequence (Q2MKA5 30-467 partner): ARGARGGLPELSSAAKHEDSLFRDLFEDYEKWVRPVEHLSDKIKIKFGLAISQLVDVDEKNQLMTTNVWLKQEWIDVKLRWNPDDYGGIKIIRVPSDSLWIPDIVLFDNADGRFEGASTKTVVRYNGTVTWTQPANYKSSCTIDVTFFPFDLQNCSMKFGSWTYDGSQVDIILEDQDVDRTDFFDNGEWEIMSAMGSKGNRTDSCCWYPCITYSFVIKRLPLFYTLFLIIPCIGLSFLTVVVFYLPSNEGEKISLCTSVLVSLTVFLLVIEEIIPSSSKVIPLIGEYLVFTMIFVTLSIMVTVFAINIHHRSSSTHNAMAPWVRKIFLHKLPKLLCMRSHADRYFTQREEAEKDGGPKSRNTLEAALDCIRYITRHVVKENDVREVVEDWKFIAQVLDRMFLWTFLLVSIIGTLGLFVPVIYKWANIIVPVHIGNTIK
T1 sequence (P49582 23-502): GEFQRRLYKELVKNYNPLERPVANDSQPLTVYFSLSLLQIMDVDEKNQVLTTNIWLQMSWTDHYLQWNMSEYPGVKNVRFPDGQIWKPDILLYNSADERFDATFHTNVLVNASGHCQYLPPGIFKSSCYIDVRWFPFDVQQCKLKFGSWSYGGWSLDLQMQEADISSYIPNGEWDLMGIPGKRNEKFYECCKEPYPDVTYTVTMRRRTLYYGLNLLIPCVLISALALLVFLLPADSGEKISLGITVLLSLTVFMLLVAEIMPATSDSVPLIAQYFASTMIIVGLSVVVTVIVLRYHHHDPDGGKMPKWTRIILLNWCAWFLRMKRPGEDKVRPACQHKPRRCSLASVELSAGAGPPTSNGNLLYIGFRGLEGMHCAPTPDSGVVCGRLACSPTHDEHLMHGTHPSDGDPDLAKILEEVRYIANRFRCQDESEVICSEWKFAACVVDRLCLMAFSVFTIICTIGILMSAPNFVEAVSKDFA
α7 receptors, sequence (P22770 23-502 limits assumed): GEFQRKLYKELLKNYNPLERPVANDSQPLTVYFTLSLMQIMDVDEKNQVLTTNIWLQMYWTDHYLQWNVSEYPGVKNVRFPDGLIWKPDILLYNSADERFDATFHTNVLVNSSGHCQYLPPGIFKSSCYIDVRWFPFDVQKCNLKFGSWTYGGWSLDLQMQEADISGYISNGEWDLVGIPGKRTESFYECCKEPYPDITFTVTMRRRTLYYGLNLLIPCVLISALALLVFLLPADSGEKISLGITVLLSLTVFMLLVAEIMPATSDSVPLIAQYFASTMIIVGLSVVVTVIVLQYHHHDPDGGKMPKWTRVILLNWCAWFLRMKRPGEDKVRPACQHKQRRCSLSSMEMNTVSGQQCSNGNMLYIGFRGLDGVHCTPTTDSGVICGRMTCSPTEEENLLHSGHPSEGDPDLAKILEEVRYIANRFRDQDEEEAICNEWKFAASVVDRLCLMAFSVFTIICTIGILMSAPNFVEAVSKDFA
hetero-oligomeric nAChR binding sites in SCG membranes, sequence (Q8R4G9 26-499): as the sequence (Q8R4G9 26-499) above
hetero-oligomeric nAChR binding sites in SCG membranes, sequence (Q8R493 21-495): as the sequence (Q8R493 21-495) above
hetero-oligomeric nAChR binding sites in SCG membranes, sequence (Q2MKA5 30-467 partner): as the sequence (Q2MKA5 30-467 partner) above
hetero-oligomeric nAChR binding sites in SCG membranes, sequence (Q9ERK7 26-501 partner): as the sequence (Q9ERK7 26-501) above

Q: With Clc1ccc(C2CC3CCC2N3)cn1 (racemic) [[^3H]-epibatidine, [5,6.bicycloheptyl-^3H](+/−)epibatidine] as the compound, how does the “Bmax of [3H]-epibatidine binding” value ([1]; averaged from 4 experiments, P18 WT SCG membranes) read?
A: 345.8 ± 25.6 fmol/mg protein

Q: What about the “Bmax of [3H]-epibatidine binding” value ([1]; single experiment shown in Fig. 1A) of the same compound?
A: 371.2 ± 13.5 fmol/mg protein

Q: And the Kd [2]?
A: 0.000137 µM

Q: Which results are given for CC(=O)OCC[N+](C)(C)C [ACh, acetylcholine]?
A: decay time constant (hα3α5β4): 563 ms; Af (fast amplitude, share of current) [3]: 16.8 ± 1.1 % ^1; Af + As + C (total amplitude) [3]: 3907 ± 230 pA ^6; Af, fast [3]: −809 pA; As (slow amplitude, share of current) [3]: 48.6 ± 2.6 % ^3; As, slow [3]: −2899 pA; C (plateau, share of current) [3]: 34.5 ± 2.8 % ^5; Tf (fast decay time constant) [3]: 449 ± 30 (msec) ^2; Tf, fast [3]: 0.47 s; Ts (slow decay time constant) [3]: 5592 ± 509 (msec) ^4; Ts, slow [3]: 6.98 s; plateau [3]: −943 pA; Af (fast amplitude, share of current) [4]: 50.5 ± 2.1%; Af + As + C (total amplitude) [4]: 1166 ± 77 pA; Af, fast [4]: −1171 pA; As (slow amplitude, share of current) [4]: 36.2 ± 1.7%; As, slow [4]: −472 pA; C (plateau, share of current) [4]: 13.2 ± 1.0%; EC50 [4]: 169 ± 25.2 µM; Hill coefficient [4]: 0.67 ± 0.04; Tf, fast [4]: 115 ms; Ts, slow [4]: 1477 ms; plateau [4]: −140 pA; Af (fast amplitude, share of current) [5]: 13.0 ± 0.7 % ^1; Af + As + C (total amplitude) [5]: 3747 ± 215 pA ^6; As (slow amplitude, share of current) [5]: 56.3 ± 2.3 % ^3; C (plateau, share of current) [5]: 30.5 ± 2.8 % ^5; Hill coefficient [5]: 1.60 ± 0.05; Tf (fast decay time constant) [5]: 444 ± 22 (msec) ^2; Ts (slow decay time constant) [5]: 5495 ± 496 (msec) ^4; decay time constant (hα3β4; probed with 300 μM ACh): 495 ms

Q: With O=c1cccc2n1C[C@@H]1CNC[C@H]2C1 [Cytisine, cytisine] as the compound, how does the “potency ratio cytisine/DMPP” value (human α3β4 receptors) read?
A: 4

Q: What about the EC50 [3] of the same compound?
A: 37.7 ± 2.43 µM

Q: And the Hill coefficient [3]?
A: 1.10 ± 0.02

Q: And the “low-concentration potency ratio cytisine/DMPP” value [3]?
A: 0.76 ± 0.04 and 0.76

Q: And the “potency ratio cytisine/DMPP (low concentration)” value [3]?
A: 0.67

Q: And the EC50 ([3]; read-out: fictitious EC50)?
A: 26.2 µM

Q: And the “potency ratio cytisine/DMPP” value (rα3β4 receptors)?
A: 1.47

Q: What about the Hill coefficient [5] of the same compound?
A: 1.44 ± 0.06

Q: What about the “low-concentration potency ratio cytisine/DMPP” value [5] of the same compound?
A: 1.23

Q: What about the “potency ratio cytisine/DMPP (low concentration)” value [5] of the same compound?
A: 1.34

Q: And the EC50 ([5]; EC50)?
A: 34.5 ± 2.26 µM

Q: What about the EC50 ([5]; fictitious EC50) of the same compound?
A: 21.7 µM

Q: What about the “potency ratio cytisine/DMPP” value (hα3β4) of the same compound?
A: 1.29

Q: Which results are given for C[N+]1(C)CCN(c2ccccc2)CC1.[I-] [DMPP, 1,1-dimethyl-4-phenylpiperazinium iodide]?
A: EC50 [3]: 23 ± 1.17 µM; Hill coefficient [3]: 1.79 ± 0.08; EC50 ([3]; read-out: fictitious EC50): 39.2 µM; EC50 [4]: 11 ± 1.79 µM; Hill coefficient [4]: 1.21 ± 0.12; Hill coefficient [5]: 1.91 ± 0.06; EC50 ([5]; EC50): 19 ± 0.76 µM; EC50 ([5]; fictitious EC50): 16.1 µM

Q: With CCN1C[C@]2(COC(=O)c3ccccc3N3C(=O)C[C@H](C)C3=O)CC[C@H](OC)[C@@]34[C@@H]5C[C@H]6[C@H](OC)[C@@H]5[C@](O)(C[C@@H]6OC)[C@@](O)([C@@H](OC)[C@H]23)[C@@H]14 [MLA, methyllycaconitine] as the compound, how does the “effect of MLA on peak currents in response to 500 μM ACh” value (α7 nAChRs [6]) read?
A: unaffected

Q: And the “effect of MLA on peak currents in response to 500 μM ACh” value (α7 nAChRs [7])?
A: unaffected

Q: For COc1cc(OC)c(NC(=O)Nc2cc(C)on2)cc1Cl [PNU-120596], which “choline-induced currents with 10 μM PNU-120596 versus without” value [8] is on record?
A: not significantly different

Q: What about the “peak currents in response to 300 μM ACh in the presence of 10 μM PNU-120596” value (“peak currents in response to 300 μM ACh” for short) ([8]; n = 26) of the same compound?
A: somewhat enhanced

Q: And the “Peak currents in response to 10 mM choline in the presence of PNU-120596” value (α7 receptors)?
A: 1688 ± 204 pA/pF

Q: And the “peak currents in response to 300 μM ACh” value (α7 nAChRs [6]; n = 14)?
A: somewhat enhanced

Q: What about the “choline-induced currents with 10 μM PNU-120596 versus without” value (α7 nAChRs [9]) of the same compound?
A: significantly larger

Q: And the “peak currents in response to 300 μM ACh” value (α7 nAChRs [7]; n = 13)?
A: somewhat reduced

Q: And the “choline-induced currents with 10 μM PNU-120596 versus without” value (α7 nAChRs [10])?
A: significantly larger

Q: For C[N+](C)(C)CCO [choline], which “Peak currents in response to 10 mM choline” value (α7 receptors) is on record?
A: 40.4 ± 3.8 pA/pF

Q: What about the “currents induced by choline” value (α7 nAChRs [6]) of the same compound?
A: slowly decaying currents of considerable amplitude

Q: What about the “currents induced by choline” value (α7 nAChRs [10]) of the same compound?
A: negligible currents
